Laboratory results: patent US8894993B2, “Mitochondria-targeted antioxidants” (Natreon Inc., priority 2006, dated 2014)

Tests used:
Type in all cases: in vivo, Swiss albino mice
[1] = tested on: Blood levels of ATP and energy related indices; assay: Blood ATP and energy related indices in mice after restraint stress; settings: 25 mg/Kg p.o. 7 days
Experimental: (§1) Swiss albino mice (20±2 g) were fed orally with—(a) 3-OH-DBP and (b) 3,8-(OH)2-DBP (each 25 mg/Kg b.w. per day, for 7 days). In case of the controls, only vehicle (0.8% carboxymethyl cellulose in water) was administered for seven days of the experiment. All the animals of all the groups were subjected to restraint stress (for 60 minutes) on the seventh day of the experiment, 2 hours after drug administration, according to a published method [Figueiredo, H. F., Bodie, B. L., Tauchi, M., Dolgas, C. M. and Herman, J. P. 2003. Endocrinology, 144, 5249-5258]. The model was selected in the present experiment, because restraint stress is a widely used model of acute oxidative stress. Immediately after being exposed to stress, the animals were sacrificed, blood was collected for analysis by HPLC of ATP and related nucleotides [Smolenska, Z., Kaznowska, Z., Zarowny, D., Simmonds, H. A. and Smolenski, R. T. 1999. Rheumatology, 38, 997-1002; Komarova, S. V., Mosharov, E. V., Vitvitsky, V. M. and Ataullakhanov, F. I. 1999. Blood Cell Mol. Dis., 25(13), 170-179; Marquardt, D. L., Gruber, H. E. and Wasserman, S. I. 1984. Proc. Natl. Acad. Sci., 81, 6192-6196], and liver was collected for measurement of superoxide dismutase and catalase activities [Zielinski, S, and Pörtner, H. 2000. Comparative Biochem. Physiol. Part B, 125, 147-[60]. AEC (adenylate energy charge) was calculated according to the method of Atkinson and Walton [Atkinson D E & Walton G M, Adenosine triphosphate conservation in metabolic regulation, J Biol Chem, 242 (1967) 3239] and TAN (total adenine nucleotides) was calculated according to an established method [Spencer M K & Katz A, Role of glycogen in control of glycolysis and IMP formation in human muscle during exercise, Am J Physiol, 260 (1991) E859].

[2] = tested on: Catalase activity in liver; assay: Catalase activity in liver of mice after restraint stress; settings: 25 mg/Kg p.o. 7 days, control 3.9
Experimental: as §1, with “Rheumatology, 38, 997-1002; Komarova, S. V., Mosharov, E. V., Vitvitsky, V. M. and Ataullakhanov, F. I. 1999. Blood Cell Mol. Dis., 25(13), 170-179; Marquardt, D. L., Gruber, H. E. and Wasserman, S. I. 1984. Proc. Natl. Acad. Sci., 81, 6192-6196], and liver was collected for measurement of superoxide dismutase and catalase activities [Zielinski, S, and Pörtner, H. 2000. Comparative Biochem. Physiol. Part B, 125, 147-[60].” left out, “E859]. […]” for “E859].”

[3] = tested on: Superoxide dismutase (SOD) activity in liver; assay: Superoxide dismutase activity in liver of mice after restraint stress; settings: 25 mg/Kg p.o. 7 days, control 0.6
Experimental: as §1, with “Rheumatology, 38, 997-1002; Komarova, S. V., Mosharov, E. V., Vitvitsky, V. M. and Ataullakhanov, F. I. 1999. Blood Cell Mol. Dis., 25(13), 170-179; Marquardt, D. L., Gruber, H. E. and Wasserman, S. I. 1984. Proc. Natl. Acad. Sci., 81, 6192-6196], and liver was collected for measurement of superoxide dismutase and catalase activities [Zielinski, S, and Pörtner, H. 2000. Comparative Biochem. Physiol. Part B, 125, 147-[60].” left out, “E859]. […]” for “E859].”

[4] = tested on: Blood levels of ATP and energy related indices; assay: Blood ATP and energy related indices in mice after forced swimming stress
Experimental: Swiss albino mice (20±2 g) were fed orally with—(a) 3,8-(OH)2-DBP and (b) 3-OH-DBP (each 25 mg/Kg b.w.), per day, for 7 days. In case of the controls, only vehicle (0.8% carboxymethyl cellulose in water) was administered for seven days of the experiment. The animals were subjected to ‘forced swimming’ for 30 minutes on the 7th day of the experiment [Pliakas, A. M., Carlson, R. R., Neve, R. L., Konradi, C., Nestler, E. J. and Carlezon, W. A. 2001. J. Neurosci., 21(18), 7397-7403]. Immediately after the swimming, blood was collected from all the animals for analysis of ATP and related nucleotides by HPLC [Smolenska, Z., Kaznowska, Z., Zarowny, D., Simmonds, H. A. and Smolenski, R. T. 1999. Rheumatology, 38, 997-1002; Komarova, S. V., Mosharov, E. V., Vitvitsky, V. M. and Ataullakhanov, F. I. 1999. Blood Cell Mol. Dis., 25(13), 170-179; Marquardt, D. L., Gruber, H. E. and Wasserman, S. I. 1984. Proc. Natl. Acad. Sci., 81, 6192-6196]. AEC (adenylate energy charge) was calculated according to the method of Atkinson and Walton [Atkinson D E & Walton G M, Adenosine triphosphate conservation in metabolic regulation, J Biol Chem, 242 (1967) 3239] and TAN (total adenine nucleotides) was calculated according to an established method [Spencer M K & Katz A, Role of glycogen in control of glycolysis and IMP formation in human muscle during exercise, Am J Physiol, 260 (1991) E859].

Q: What does the source list for `O=c1oc2cc(O)ccc2c2ccccc12` [3-OH-DBP, 3-hydroxydibenzo-α-pyrone]?
A: ADP ([1]; mean ± SEM of 6, control 0.14 ± 0.02): 0.09 ± 0.01 µM; ATP ([1]; mean ± SEM of 6, control 0.67 ± 0.03): 0.66 ± 0.04 µM; TAN ([1]; mean ± SEM of 6, control 0.76 ± 0.03): 0.79 ± 0.05 µM; AEC ([1]; mean ± SEM of 6, control 0.89 ± 0.01): 0.90 ± 0.01; ATP/ADP ratio ([1]; mean ± SEM of 6, control 4.90 ± 0.32): 7.04 ± 0.38; Catalase activity in liver [2]: 3.5 U/mg tissue; SOD activity in liver [3]: 0.91 U/gm tissue; content of ATP, AEC values and ATP/ADP ratio (in blood), in words ([4]; albino mice engaged in forced swimming): significantly improved; ATP ([4]; blood, forced swimming, 25 mg/Kg p.o. 7 days, mean ± SEM of 6, control 0.60 ± 0.01): 0.72 ± 0.03 µM; TAN ([4]; blood, forced swimming, 25 mg/Kg p.o. 7 days, mean ± SEM of 6, control 0.79 ± 0.01): 0.90 ± 0.04 µM; AEC ([4]; blood, forced swimming, 25 mg/Kg p.o. 7 days, mean ± SEM of 6, control 0.86 ± 0.003): 0.89 ± 0.002; ATP/ADP ratio ([4]; blood, forced swimming, 25 mg/Kg p.o. 7 days, mean ± SEM of 6, control 3.84 ± 0.09): 4.82 ± 0.09
